Measured values as given in patent US20260108451A1, “COMPOSITIONS FOR THE MANAGEMENT OF HIRSUTISM” (priority 2022, published 2026).

Test system: Ornithine decarboxylase (ODC)
Assay: Expression of ornithine decarboxylase (ODC) by flow cytometry in dermal papilla cells
Type: cell-based, human
Conditions: Control 26.8%
Experimental: Dermal papilla cells (DPC) were cultured in DMEM medium with 10% FBS and seeded in 96 well tissue culture plate for the test. 24 hrs post seeding, DPC were treated with the test sample Ar-Turmerone at graded concentrations and incubated for 48 hrs in 5% CO2 incubator at 37° C. After 48 hrs the cells were collected from each well. These cells were incubated with Fluorescein isothiocyanate (FITC) labelled Ornithine-de-carboxylase antibody. After being washed with sterile PBS, samples were resuspended in PBS (pH 7.4) and acquired directly on the Flow cytometer. A fluorescence trigger was set on the FITC (FL1) parameter of the gated DPC populations (10,000 events). Percentage decrease of ODC expression in test samples was calculated with respect to un-treated cells (control), (FIG. 1).

Question: `NCCCC(N)(C(=O)O)C(F)F` (stereo not shown) [Eflornithine] was tested. Which “% Expression of ODC at 100 μg/ml” value did it give?
Answer: Its value is 11.4%.
